Laboratory results from patent US6716809B1, “Mage-A3 peptides presented by HLA class molecules” (priority 1997, dated 2004).

Experiments:
Assay type in all cases: cell-based, human
LB1158 CD4+ clone 22 = test: IFN-γ production by CD4+ clone 22 stimulated with peptide- or protein-pulsed EBV-B cells; conditions: for IFN-γ production after stimulation with peptide of clone 22: 1 μg/ml peptide
Protocol: (§1) In order to confirm the efficacy of this protocol, dendritic cells were fed with the MAGE-3 protein, using conditions described above, to stimulate autologous CD4^+ T lymphocytes from hemochromatosis patient LB1158 or from melanoma patient 7002. After four restimulations, the specific production of IFN-γ by an aliquot of each of the microcultures stimulated with the autologous EBV-B cells loaded with MAGE-A3 were tested on day 35 for patient LB1158 and day 37 for patient 7002. For each individual, one positive microculture was cloned using autologous EBV-B cells as stimulating cells, either retrotransduced with MFG Ii MAGE-A3 for LB1158, or fed with protein MAGE-A3 for patient 7002. […] Specifically, autologous EBV-B cells were incubated for 20 h in the presence of 20 μg/ml of recombinant His-MAGE-A3 protein. Clone 22 (2500 cells) was incubated overnight with 5000 MAGE-A3 loaded EBV-B cells in round botton microwells in the presence or absence of monoclonal antibodies which recognize HLA-A,B,C (W6/32) or HLA-DR (2B6). IFN-γ secretion was measured after 20 h by ELISA (FIG. 15A).
(§2) Peptides corresponding to parts of MAGE-A3 (e.g., MAGE107-122, MAGE111-126, MAGE115-130, MAGE119-134) were tested for recognition by clone 2 and 22. HLA-DR13 EBV-B cells were pulsed for 2 h with different concentrations of these peptides. Clones 2 and 37 (2500 cells) were incubated with 5000 peptide pulsed cells in round-bottomed microwells for 20 h and assayed for IFN-γ production.
(§3) Autologous or allogeneic EBV-B cells were pulsed for 2 h with 1 μg/ml MAGE-A3119-134 peptide, and then washed. Clones 2 or 22 were incubated with 5000 peptide-pulsed EBV-B cells in round-bottomed microwells for 20 h and the clones' reactivity to the EBV-B cells was measured by ELISA as IFN-γ secretion. Experiments were performed in triplicate.
(§4) Unlike HLA-class I-restricted peptides, class II-restricted peptides usually vary in length and tolerate extensions at both the amino and carboxy termini, because they are not fixed by their ends in the groove. It is therefore difficult to define precisely the length of the antigenic peptide. Therefore a large number of MAGE-A3 peptides were tested at different concentrations (Tables IV and V). […] 2500 cells of clone 37 were then cocultured for 20 h in round-bottomed microwells with 5000 peptide-pulsed cells. IFN-γ released in the supernatant of the cocultures was measured in an ELISA assay. The experiments were performed in triplicate. […] Clones 2 and 22 (2500 cells) were then cocultured for 20 h in round-bottomed microwells with 5000 peptide-pulsed cells. IFN-γ released in the supernatant of the cocultures was measured in an ELISA assay. The experiments was performed twice in duplicates.

7002 CD4+ clone 2 = test: IFN-γ production by CD4+ clone 2 stimulated with peptide- or protein-pulsed EBV-B cells; conditions: for IFN-γ production after stimulation with peptide of clone 2: 1 μg/ml peptide
Protocol: as §1, §2, §3, §4

[1] = tested on: CD4+ clone 436/B6.34 (B6/34); test: TNF/IFN-γ production by CD4+ clone B6/34 stimulated with peptide-pulsed EBV-B cells
Protocol: In order to identify the MAGE-A3 peptides recognized by these CD4^+ clones, 16 amino acid peptides, corresponding to parts of the MAGE-A3 protein sequence were synthesized, loaded on the autologous EBV-B cells and tested for recognition (FIGS. 4 and 5). Peptides were synthesized using F-moc for transient NH2-terminal protection and were characterized using mass spectrometry. All peptides were >80% pure as indicated by analytical HPLC. Lyophilized synthetic peptides were dissolved in DMSO (Merck) and used at a final concentration of 500 μM, 50 μM or 5 μg/ml. EBV-B cells (5,000 per round-bottomed microwell) were incubated 2 hours at 37° C., 8% CO2 in the presence of the different peptides, the indicated concentrations representing the peptide concentration during the incubation step. CD4^+ clones were then added at 2,500 cells per well. Assay medium was Iscove's medium supplemented with L-glutamine, L-arginine, L-asparagine, 10% human serum and IL-2 (25 U/ml). After 18-20 hours, supernatants were harvested and assessed for TNF-α and/or IFN-γ secretion. IFN-γ production was measured using an ELISA test (20-4000 pg/ml) developed in the laboratory with reagents from Medgenix Diagnostics-Biosource (Fleurus, Belgium).

[2] = EBV-B cell line 7002, DR13 positive
[3] = EBV-B cell line BM16, DR13 negative
[4] = EBV-B cell line BOB, DR13 negative
[5] = EBV-B cell line BOLETH, DR13 negative
[6] = EBV-B cell line LB1118, DR13 positive
[7] = EBV-B cell line LB1158, DR13 positive
[8] = EBV-B cell line LB1622, DR13 positive
[9] = EBV-B cell line LB1859, DR13 positive
[10] = EBV-B cell line LB1861, DR13 positive
[11] = EBV-B cell line LB1869, DR13 positive
[12] = EBV-B cell line LKT3, DR13 negative
[13] = EBV-B cell line MZ2, DR13 positive
[14] = EBV-B cell line OLGA, DR13 negative
[15] = EBV-B cell line OMW, DR13 positive
[16] = EBV-B cell line RML, DR13 negative
[17] = EBV-B cell line RSH, DR13 negative
[18] = EBV-B cell line TAB089, DR13 negative
[19] = EBV-B cell line TISI, DR13 negative
[20] = EBV-B cell line VAF, DR13 negative
[21] = EBV-B cell line VET, DR13 negative

FLLLKYRAREPVTKAE (listed as Homo sapiens) [MAGE-A3119-134]
IFN-γ production after stimulation with peptide of clone 22 (LB1158 CD4+ clone 22; [2]): >4000 pg/mL
IFN-γ production after stimulation with peptide of clone 22 (LB1158 CD4+ clone 22; [3]): 7 pg/mL
IFN-γ production after stimulation with peptide of clone 22 (LB1158 CD4+ clone 22; [4]): 46 pg/mL
IFN-γ production after stimulation with peptide of clone 22 (LB1158 CD4+ clone 22; [5]): 6 pg/mL
IFN-γ production after stimulation with peptide of clone 22 (LB1158 CD4+ clone 22; [6]): 1345 pg/mL
IFN-γ production after stimulation with peptide of clone 22 (LB1158 CD4+ clone 22; [7]): 3967 pg/mL
IFN-γ production after stimulation with peptide of clone 22 (LB1158 CD4+ clone 22; [8]): 1250 pg/mL
IFN-γ production after stimulation with peptide of clone 22 (LB1158 CD4+ clone 22; [9]): >4000 pg/mL
IFN-γ production after stimulation with peptide of clone 22 (LB1158 CD4+ clone 22; [10]): 3865 pg/mL
IFN-γ production after stimulation with peptide of clone 22 (LB1158 CD4+ clone 22; [11]): >4000 pg/mL
IFN-γ production after stimulation with peptide of clone 22 (LB1158 CD4+ clone 22; [12]): 0 pg/mL
IFN-γ production after stimulation with peptide of clone 22 (LB1158 CD4+ clone 22; [13]): 2030 pg/mL
IFN-γ production after stimulation with peptide of clone 22 (LB1158 CD4+ clone 22; [14]): 0 pg/mL
IFN-γ production after stimulation with peptide of clone 22 (LB1158 CD4+ clone 22; [15]): 3651 pg/mL
IFN-γ production after stimulation with peptide of clone 22 (LB1158 CD4+ clone 22; [16]): 6 pg/mL
IFN-γ production after stimulation with peptide of clone 22 (LB1158 CD4+ clone 22; [17]): 0 pg/mL
IFN-γ production after stimulation with peptide of clone 22 (LB1158 CD4+ clone 22; [18]): 0 pg/mL
IFN-γ production after stimulation with peptide of clone 22 (LB1158 CD4+ clone 22; [19]): 4 pg/mL
IFN-γ production after stimulation with peptide of clone 22 (LB1158 CD4+ clone 22; [20]): 49 pg/mL
IFN-γ production after stimulation with peptide of clone 22 (LB1158 CD4+ clone 22; [21]): 56 pg/mL
stimulation of clone 22 (LB1158 CD4+ clone 22; similar experiments): also stimulated
IFN-γ production after stimulation with peptide of clone 2 (7002 CD4+ clone 2; [2]): >4000 pg/mL
IFN-γ production after stimulation with peptide of clone 2 (7002 CD4+ clone 2; [3]): 12 pg/mL
IFN-γ production after stimulation with peptide of clone 2 (7002 CD4+ clone 2; [4]): 59 pg/mL
IFN-γ production after stimulation with peptide of clone 2 (7002 CD4+ clone 2; [5]): 0 pg/mL
IFN-γ production after stimulation with peptide of clone 2 (7002 CD4+ clone 2; [6]): >4000 pg/mL
IFN-γ production after stimulation with peptide of clone 2 (7002 CD4+ clone 2; [7]): >4000 pg/mL
IFN-γ production after stimulation with peptide of clone 2 (7002 CD4+ clone 2; [8]): 3993 pg/mL
IFN-γ production after stimulation with peptide of clone 2 (7002 CD4+ clone 2; [9]): >4000 pg/mL
IFN-γ production after stimulation with peptide of clone 2 (7002 CD4+ clone 2; [10]): >4000 pg/mL
IFN-γ production after stimulation with peptide of clone 2 (7002 CD4+ clone 2; [11]): >4000 pg/mL
IFN-γ production after stimulation with peptide of clone 2 (7002 CD4+ clone 2; [12]): 0 pg/mL
IFN-γ production after stimulation with peptide of clone 2 (7002 CD4+ clone 2; [13]): >4000 pg/mL
IFN-γ production after stimulation with peptide of clone 2 (7002 CD4+ clone 2; [14]): 0 pg/mL
IFN-γ production after stimulation with peptide of clone 2 (7002 CD4+ clone 2; [15]): 3153 pg/mL
IFN-γ production after stimulation with peptide of clone 2 (7002 CD4+ clone 2; [16]): 0 pg/mL
IFN-γ production after stimulation with peptide of clone 2 (7002 CD4+ clone 2; [17]): 0 pg/mL
IFN-γ production after stimulation with peptide of clone 2 (7002 CD4+ clone 2; [18]): 0 pg/mL
IFN-γ production after stimulation with peptide of clone 2 (7002 CD4+ clone 2; [19]): 4 pg/mL
IFN-γ production after stimulation with peptide of clone 2 (7002 CD4+ clone 2; [20]): 0 pg/mL
IFN-γ production after stimulation with peptide of clone 2 (7002 CD4+ clone 2; [21]): 0 pg/mL
secretion of IFN-γ by clone 2 (7002 CD4+ clone 2; peptide at 10 ng/ml, HLA-DR13 EBV-B cells): stimulated secretion of IFN-γ
activation of clone B6/34 by 16 amino acid peptides [1]: unable to activate

B1: MAGE-A3: MAGE-A3 protein; recombinant His-MAGE-A3 produced in E. coli, or expressed from MFG MAGE-A3 retrovirus in Example 6 (protein, listed as Homo sapiens)
chain: MPLEQRSQHCKPEEGLEARGEALGLVGAQAPATEEQEAASSSSTLVEVTLGEVPAAESPDPPQSPQGASSLPTTMNYPLWSQSYEDSSNQEEEGPSTFPDLESEFQAALSRKVAELVHFLLLKYRAREPVTKAEMLGSVVGNWQYFFPVIFSKASSSLQLVFGIELMEVDPIGHLYIFATCLGLSYDGLLGDNQIMPKAGLLIIVLAIIAREGDCAPEEKIWEELSVLEVFEGREDSILGDPKKLLTQHFVQENYLEYRQVPGSDPACYEFLWGPRALVETSYVKVLHHMVKISGGPHISYPPLHEWVLREGEE
modifications: His tag
IFN-γ secretion by clone 22 upon stimulation with protein-loaded autologous EBV-B cells (LB1158 CD4+ clone 22): secreted IFN-γ
IFN-γ secretion by clone 2 upon stimulation with protein-loaded autologous EBV-B cells (7002 CD4+ clone 2): secreted IFN-γ
